For data set [1], the system named is Rattus norvegicus. As to the kind of experiment: Reduction in food intake in Sprague-Dawley rat at 3 nmol/kg measured 0 to 24 hrs post dose relative to control. The class given is functional. Further details: scale not given: the % may be the effect or the level left.
Data set [2] deals with Rattus norvegicus. As to the kind of experiment: Reduction in food intake in Sprague-Dawley rat at 3 nmol/kg measured 24 to 48 hrs post dose relative to control. It is filed as functional. Further details: scale not given: the % may be the effect or the level left.
The target in data set [3] is T1, Amylin receptor AMY3; CALCR/RAMP3 (Homo sapiens, UniProt O60896+P30988).
T1 sequence (P30988 whole entry): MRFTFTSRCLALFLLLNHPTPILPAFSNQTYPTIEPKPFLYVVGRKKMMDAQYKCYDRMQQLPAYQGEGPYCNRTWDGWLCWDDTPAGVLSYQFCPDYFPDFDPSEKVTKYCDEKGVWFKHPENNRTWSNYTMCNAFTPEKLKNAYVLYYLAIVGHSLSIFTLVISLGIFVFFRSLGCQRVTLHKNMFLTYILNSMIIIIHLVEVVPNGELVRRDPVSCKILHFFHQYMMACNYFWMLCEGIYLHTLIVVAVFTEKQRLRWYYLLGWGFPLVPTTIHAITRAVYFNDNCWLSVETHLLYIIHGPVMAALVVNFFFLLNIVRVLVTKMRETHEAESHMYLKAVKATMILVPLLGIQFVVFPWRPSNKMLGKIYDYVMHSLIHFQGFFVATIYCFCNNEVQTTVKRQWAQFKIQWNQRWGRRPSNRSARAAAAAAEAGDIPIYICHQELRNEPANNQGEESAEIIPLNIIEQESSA
T1 sequence (O60896 whole entry): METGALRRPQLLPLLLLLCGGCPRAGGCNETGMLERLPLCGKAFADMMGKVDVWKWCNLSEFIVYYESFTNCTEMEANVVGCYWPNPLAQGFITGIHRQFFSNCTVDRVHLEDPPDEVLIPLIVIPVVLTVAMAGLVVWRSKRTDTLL
In words: Agonist activity at human amylin receptor expressed in BHK570 cells co-expressing RAMP3 assessed as increase in intracellular cAMP concentration incubated for 3 hrs in absence of albumin by CRE luciferase reporter gene assay. It is filed as functional, cell-based. For orientation: In a reporter assay the amount or activity of a reporter protein is the signal.

Data set [4] has as its target T2, Calcitonin receptor (Homo sapiens, UniProt P30988).
T2 sequence (P30988 whole entry): T1 sequence (P30988 whole entry)
In words: Agonist activity at human calcitonin receptor expressed in BHK570 cells assessed as increase in intracellular cAMP concentration incubated for 3 hrs in absence of albumin by CRE luciferase reporter gene assay. The class given is functional, cell-based.

A short description of data set [5]: Solubility in 100 mM bistrispropane buffer at pH 6.5 incubated for 18 hrs by UPLC analysis. The class given is physicochemical.
The target of data set [6] is T1, Amylin receptor AMY3; CALCR/RAMP3. In words: Displacement of [125I]-labeled rat amylin from human amylin receptor expressed in BHK tkts13 whole cells co-expressing RAMP3 incubated for 60 mins by scintillation proximity assay. It is filed as cell-based. Background: Loss of bound radioactivity is the signal in a displacement assay; it reports binding, not function.

Data set [7] deals with T2, Calcitonin receptor. In words: Agonist activity at human calcitonin receptor expressed in BHK570 cells assessed as increase in intracellular cAMP concentration incubated for 3 hrs in presence of 10% FBS by CRE luciferase reporter gene assay. The class given is functional, cell-based.
Data set [8] can be described thus: Solubility in 100 mM glycylglycine buffer at pH 3.0 incubated for 18 hrs by UPLC analysis. The class given is physicochemical.
Data set [9] in a line: Solubility in 100 mM glycylglycine buffer at pH 4.0 incubated for 18 hrs by UPLC analysis. It is filed as physicochemical.
A short description of data set [10]: Solubility in 100 mM bistrispropane buffer at pH 6.0 incubated for 18 hrs by UPLC analysis. The class given is physicochemical.
The nature of data set [11]: Solubility in 100 mM glycylglycine buffer at pH 5.0 incubated for 18 hrs by UPLC analysis. The class given is physicochemical.
Data set [12] is described as follows: Solubility in 100 mM bistrispropane buffer at pH 7.0 incubated for 18 hrs by UPLC analysis. The class given is physicochemical.
Data set [13] can be described thus: Solubility in 100 mM bistrispropane buffer at pH 7.5 incubated for 18 hrs by UPLC analysis. The class given is physicochemical.
Data set [14] can be described thus: Solubility in 100 mM bistrispropane buffer at pH 8.0 incubated for 18 hrs by UPLC analysis. It is filed as physicochemical.
Data set [15] concerns the target T1, Amylin receptor AMY3; CALCR/RAMP3. In words: Agonist activity at human amylin receptor expressed in BHK570 cells co-expressing RAMP3 assessed as increase in intracellular cAMP concentration incubated for 3 hrs in presence of 10% FBS by CRE luciferase reporter gene assay. It is filed as functional, cell-based.

Converted amounts (≈) assume the structure as drawn. Numbered stars: 1 amine (or outer) side, 2 acyl side, 3 side chain; on linkers, the order of the positions; unused ones are H or OH. Peptide text beside a SMILES is read from it. * marks the point of attachment. C20 diacid = O=C(O)CCCCCCCCCCCCCCCCCCC(=O)*; C18 diacid = O=C(O)CCCCCCCCCCCCCCCCC(=O)*; γGlu = O=C(O)[C@H](CCC(=O)[*:2])N[*:1]; C12 diacid = O=C(O)CCCCCCCCCCC(=O)*

Usually EC50 stands for the concentration that produces a half-maximal response. As a reminder, the solubility is how much of the substance goes into solution per volume. In general, IC50 refers to the concentration needed to halve the response being measured.

For the compound `CC(C)C[C@H](NC(=O)[C@H](C)NC(=O)[C@H](C)NC(=O)[C@@H](NC(=O)[C@H](CO)NC(=O)[C@H](CC(C)C)NC(=O)[C@H](CCC(=O)O)NC(=O)[C@H](CO)NC(=O)[C@H](C)NC(=O)CC[C@H](NC(=O)CCCCCCCCCCCCCCCCC(=O)O)C(=O)O)[C@@H](C)O)C(=O)NCC(=O)N[C@@H](CCCNC(=N)N)C(=O)N[C@@H](CC(C)C)C(=O)N[C@@H](CO)C(=O)N[C@@H](C)C(=O)N[C@@H](CCC(=O)O)C(=O)N[C@@H](CC(C)C)C(=O)N[C@@H](Cc1c[nH]cn1)C(=O)N[C@@H](CCC(=O)O)C(=O)N[C@@H](CC(C)C)C(=O)N[C@@H](C)C(=O)N[C@H](C(=O)N[C@@H](Cc1ccc(O)cc1)C(=O)N1CCC[C@H]1C(=O)N[C@@H](CCCNC(=N)N)C(=O)N[C@H](C(=O)N[C@@H](CCC(=O)O)C(=O)N[C@H](C(=O)NCC(=O)N[C@@H](CO)C(=O)NCC(=O)N[C@@H](CO)C(=O)N1CCC[C@H]1C(N)=O)[C@@H](C)O)[C@@H](C)O)[C@@H](C)O` ({C18 diacid-γGlu}-ASELSTAALGRLSAELHELATYPRTETGSGSP-NH2), the Activity was found to be 74% in the data set with Rattus norvegicus [1] and 63% with Rattus norvegicus [2].

For `CC(C)C[C@H](NC(=O)[C@H](C)NC(=O)[C@H](C)NC(=O)[C@@H](NC(=O)[C@H](CO)NC(=O)[C@H](CC(C)C)NC(=O)[C@H](CCC(=O)O)NC(=O)[C@H](CO)NC(=O)[C@H](C)NC(=O)[C@H](CCC(=O)O)NC(=O)CCCCCCCCCCC(=O)O)[C@@H](C)O)C(=O)NCC(=O)N[C@@H](CCCNC(=N)N)C(=O)N[C@@H](CC(C)C)C(=O)N[C@@H](CO)C(=O)N[C@@H](C)C(=O)N[C@@H](CCC(=O)O)C(=O)N[C@@H](CC(C)C)C(=O)N[C@@H](Cc1cnc[nH]1)C(=O)N[C@@H](CCC(=O)O)C(=O)N[C@@H](CC(C)C)C(=O)N[C@@H](C)C(=O)N[C@H](C(=O)N[C@@H](CC(C)C)C(=O)N1CCC[C@H]1C(=O)N[C@@H](CCCNC(=N)N)C(=O)N[C@H](C(=O)N[C@@H](CCC(=O)O)C(=O)N[C@H](C(=O)NCC(=O)N1CCC[C@H]1C(=O)N[C@@H](CCC(=O)O)C(=O)N[C@@H](CO)C(=O)N1CCC[C@H]1C(N)=O)[C@@H](C)O)[C@@H](C)O)[C@@H](C)O` ({C12 diacid}-EASELSTAALGRLSAELHELATLPRTETGPESP-NH2), the Activity in the data set with Rattus norvegicus [1] is on record as 2%; with Rattus norvegicus [2], -12%. Also, the figures for the EC50 (in [3]; on Calcitonin receptor [4]) were 0.023 nM and 0.008 nM, respectively. This compound also displayed a solubility at 18 h in data set [5] of 5 µM (≈ 18.2 µg/mL). For the same compound, the IC50 in [6] was 8.97 nM.

As to `CC(C)C[C@H](NC(=O)[C@H](C)NC(=O)[C@H](C)NC(=O)[C@@H](NC(=O)[C@H](CO)NC(=O)[C@H](CC(C)C)NC(=O)[C@H](CCC(=O)O)NC(=O)[C@H](CO)NC(=O)[C@H](C)NC(=O)CC[C@H](NC(=O)CCCCCCCCCCCCCCCCCCC(=O)O)C(=O)O)[C@@H](C)O)C(=O)NCC(=O)N[C@@H](Cc1cnc[nH]1)C(=O)N[C@@H](CC(C)C)C(=O)N[C@@H](CO)C(=O)N[C@@H](C)C(=O)N[C@@H](CCC(=O)O)C(=O)N[C@@H](CC(C)C)C(=O)N[C@@H](Cc1cnc[nH]1)C(=O)N[C@@H](CCC(=O)O)C(=O)N[C@@H](CC(C)C)C(=O)N[C@@H](C)C(=O)N[C@H](C(=O)N[C@@H](CC(C)C)C(=O)N1CCC[C@H]1C(=O)N[C@@H](Cc1cnc[nH]1)C(=O)N[C@H](C(=O)N[C@@H](CCC(=O)O)C(=O)N[C@H](C(=O)NCC(=O)N[C@@H](CO)C(=O)NCC(=O)N[C@@H](CO)C(=O)N1CCC[C@H]1C(N)=O)[C@@H](C)O)[C@@H](C)O)[C@@H](C)O` ({C20 diacid-γGlu}-ASELSTAALGHLSAELHELATLPHTETGSGSP-NH2), the values for the Activity in the data set with Rattus norvegicus [1] and in the data set on Rattus norvegicus [2] were 7% and 3%, respectively. Besides, the EC50 is 0.026 nM in data set [3], 0.012 nM at Calcitonin receptor [4] and 0.123 nM at Calcitonin receptor [7]. Further, the solubility at 18 h in [8], in data set [9], in data set [10], in data set [11], in data set [5] and in data set [12] was no less than 200 µM throughout. For the same compound, the solubility at 18 h in [13] and in [14] was no less than 200 µM in each case.

Consider `CC(C)C[C@H](NC(=O)[C@H](CCC(=O)O)NC(=O)[C@H](Cc1cnc[nH]1)NC(=O)[C@H](CC(C)C)NC(=O)[C@H](CCC(=O)O)NC(=O)[C@H](C)NC(=O)[C@H](CO)NC(=O)[C@H](CC(C)C)NC(=O)[C@H](CCCNC(=N)N)NC(=O)CNC(=O)[C@H](CC(C)C)NC(=O)[C@@H](NC(=O)[C@H](C)NC(=O)[C@@H](NC(=O)[C@H](CO)NC(=O)[C@H](CC(C)C)NC(=O)[C@H](CCC(=O)O)NC(=O)[C@H](CO)NC(=O)[C@H](C)NC(=O)CC[C@H](NC(=O)CCCCCCCCCCCCCCCCC(=O)O)C(=O)O)[C@@H](C)O)C(C)C)C(=O)N[C@@H](C)C(=O)N[C@H](C(=O)N[C@@H](CC(C)C)C(=O)N1CCC[C@H]1C(=O)N[C@@H](CCCNC(=N)N)C(=O)N[C@H](C(=O)N[C@@H](CCC(=O)O)C(=O)N[C@H](C(=O)NCC(=O)N[C@@H](CO)C(=O)NCC(=O)N[C@@H](CO)C(=O)N1CCC[C@H]1C(N)=O)[C@@H](C)O)[C@@H](C)O)[C@@H](C)O` ({C18 diacid-γGlu}-ASELSTAVLGRLSAELHELATLPRTETGSGSP-NH2), for which the EC50 in data set [3] was 0.01 nM; on Calcitonin receptor [4] it was 0.014 nM; in data set [15], 0.017 nM; at Calcitonin receptor [7], 0.011 nM. Also, the solubility at 18 h in data set [8], in data set [9], in data set [10], in data set [11], in data set [5] and in [12] was no less than 200 µM throughout. Also, the solubility at 18 h in data set [13] and in [14] was no less than 200 µM in each case. Also, the IC50 in [6] is 0.764 nM.

Regarding `CC(C)C[C@H](NC(=O)CNC(=O)[C@H](CO)NC(=O)[C@H](C)NC(=O)[C@H](CCC(=O)O)NC(=O)CC[C@H](NC(=O)CCCCCCCCCCCCCCCCCCC(=O)O)C(=O)O)C(=O)N[C@@H](CO)C(=O)N[C@H](C(=O)N[C@@H](C)C(=O)N[C@@H](C)C(=O)N[C@@H](CC(C)C)C(=O)NCC(=O)N[C@@H](CCCNC(=N)N)C(=O)N[C@@H](CC(C)C)C(=O)N[C@@H](CO)C(=O)N[C@@H](CCC(N)=O)C(=O)N[C@@H](CCC(=O)O)C(=O)N[C@@H](CC(C)C)C(=O)N[C@@H](Cc1cnc[nH]1)C(=O)N[C@@H](CCC(=O)O)C(=O)N[C@@H](CC(C)C)C(=O)N[C@@H](CCC(N)=O)C(=O)N[C@H](C(=O)N[C@@H](Cc1ccc(O)cc1)C(=O)N1CCC[C@H]1C(=O)N[C@@H](CCCNC(=N)N)C(=O)N[C@H](C(=O)N[C@@H](CCC(=O)O)C(=O)N[C@H](C(=O)NCC(=O)N[C@@H](CO)C(=O)NCC(=O)N[C@H](C(=O)N[C@@H](Cc1ccc(O)cc1)C(N)=O)[C@@H](C)O)[C@@H](C)O)[C@@H](C)O)[C@@H](C)O)[C@@H](C)O` ({C20 diacid-γGlu}-EASGLSTAALGRLSQELHELQTYPRTETGSGTY-NH2), the Activity is 23% with Rattus norvegicus [1] and 10% in the data set with Rattus norvegicus [2]. The EC50 turned out to be 0.023 nM on Calcitonin receptor [4] and 0.092 nM at Calcitonin receptor [7]. The solubility at 18 h in data set [8], in data set [9], in data set [10], in data set [5], in [12] and in [13] was no less than 200 µM throughout. The solubility at 18 h in data set [14] is no less than 200 µM.

These data come from ChEMBL document CHEMBL4420076, “Amylin and calcitonin receptor agonist” (2017).
